Data set [1] relates to human saliva α-amylases (HSA). The conditions noted are these: cited from earlier work. The text has this:
It covers all age groups of the population, and recently it has spread epidemiologically among children and adolescents. The blood glucose levels of diabetic patients reaches abnormally high values, which leads to serious damage to many body systems, especially nerves and blood vessels, causing heart and kidney diseases, blindness, and even the amputation of limbs. The preferred way to maintain ...

The target in data set [2] is T1, porcine pancreatic α-amylase (PPA) (Sus scrofa, UniProt P00690).
T1 construct: purchased Sigma Aldrich A4268
T1 sequence (P00690 16-511): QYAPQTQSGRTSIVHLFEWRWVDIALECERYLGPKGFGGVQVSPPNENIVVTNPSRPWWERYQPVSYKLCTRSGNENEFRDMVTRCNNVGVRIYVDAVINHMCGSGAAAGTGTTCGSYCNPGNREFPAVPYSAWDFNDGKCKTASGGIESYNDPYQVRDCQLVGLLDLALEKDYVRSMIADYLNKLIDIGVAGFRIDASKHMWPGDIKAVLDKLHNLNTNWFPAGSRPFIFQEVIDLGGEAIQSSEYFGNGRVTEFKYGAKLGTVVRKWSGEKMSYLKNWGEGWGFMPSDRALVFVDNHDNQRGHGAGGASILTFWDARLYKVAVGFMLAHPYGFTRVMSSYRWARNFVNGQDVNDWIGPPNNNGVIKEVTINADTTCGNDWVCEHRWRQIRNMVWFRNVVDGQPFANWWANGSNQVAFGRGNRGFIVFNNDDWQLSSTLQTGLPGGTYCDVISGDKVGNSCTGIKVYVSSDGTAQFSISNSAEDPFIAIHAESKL
The following applies: cited from earlier work. The text has this:
It covers all age groups of the population, and recently it has spread epidemiologically among children and adolescents. The blood glucose levels of diabetic patients reaches abnormally high values, which leads to serious damage to many body systems, especially nerves and blood vessels, causing heart and kidney diseases, blindness, and even the amputation of limbs. […] Recently, as a result of the proteomic analysis of the sea anemone H. magni ...

Data set [3] addresses human pancreatic α-amylase (HPA). The conditions noted are these: Table 5, ref [11]; cited from earlier work. The text has this:
Recently, as a result of the proteomic analysis of the sea anemone H. magni ...

Data set [4] has as its target human salivary α-amylase (HSA) (Homo sapiens, UniProt P0DUB6). Description: Determination of Ki against human saliva α-amylase (Morrison). In kind it is biochemical. The conditions noted are these: pH 7, Table 5 summary, own value; 37 °C, pH 7.0, CNPG3, Morrison fit; read-out: Ki, M (HSA) (converted). How it is done: For a quantitative assessment of tight-binding inhibitor potency, Morrison’s method was applied. This method uses the Morrison quadratic equation (Equation (1)) for fitting inhibitor-response data and determining Ki app as a nonlinear regression parameter. (1) υ/υo=1−([E]+[I]+Kiapp)−([E]+[I]+Kiapp)^2−4[E][I]/2[E]o
Kinetic assays were carried out at 37 °C in 50 mM sodium phosphate and 100 mM sodium chloride (pH 7.0). 2-Chloro-4-nitrophenyl-α-maltotrioside (CNPG3) (Sigma Aldrich, St. Louis, MO, USA) was used as the substrate and the optical absorption of the 2-chloro-4-nitrophenol was measured at 405 nm. Reactions were run with final [CNPG3] = 1 mM ([S]/KM = 1.41, KM = 0.71 mM), nominal [E] = 20 nM for PPA, [CNPG3] = 3.3 mM ([S]/KM = 0.97, KM = 3.4 mM), and nominal [E] = 100 nM for HSA to provide sufficient analytical signal. Inhibitor dilution schemes were optimized considering recommendations in [34].
The enzyme was pre-incubated with the inhibitor for 10 minutes before the addition of substrate which launched the reaction. Reactions were monitored on an xMark microplate spectrophotometer (BioRad, USA) in the kinetic mode for 30 min. The initial linear steady state region provided initial rate values for each inhibitor concentration (υ), along with uninhibited rate values (υo). Measurements were run in triplicate. […]

In data set [5] the test system is 18 subtypes of voltage-gated potassium and voltage-gated sodium channels. Kind of data set: Electrophysiological screening, overall. The conditions noted are these: 10 µM; Xenopus laevis oocytes; listed as magnificamide. In kind it is cell-based. The text has this:
For the expression of Nav channels (mammalian rNav1.2, rNav1.4, hNav1.5, mNav1.6 and hNav1.8 channels; the insect channel BgNav1 from Blattella germanica; and the auxiliary subunits rβ1, hβ1, and TipE) and Kv channels (mammalian rKv1.1, rKv1.2, hKv1.3, rKv1.4, rKv1.5, rKv1.6, rKv2.1, hKv3.1, rKv4.2, hKv10.1, and hERG; and Drosophila Shaker’s IR) in Xenopus laevis oocytes; the linearized plasmids were transcribed using the T7 or SP6 mMESSAGE-mMACHINE transcription kit (Ambion, Carlsbad, CA, USA). The harvesting of stage V–VI oocytes from anesthetized female Xenopus laevis frog was previously described. Oocytes were injected with 50 nL of cRNA at a concentration of 1 ng/nL using a microinjector (Drummond Scientific, Broomall, PA, USA). The oocytes were incubated in a solution containing 96-mM NaCl, 2-mM KCl, 1.8-mM CaCl2, 2-mM MgCl2, and 5-mM HEPES (pH 7.4), supplemented with 50 mg/L gentamycin sulfate.
Two-electrode voltage-clamp recordings were performed at room temperature (18–22 °C) using a Geneclamp 500 amplifier (Molecular Devices, Downingtown, PA, USA) controlled by a pClamp data acquisition system (Axon Instruments, Union City, CA, USA). Whole cell currents from oocytes were recorded 1–4 days after injection. The bath solution’s composition was 96-mM NaCl, 2-mM KCl, 1.8-mM CaCl2, 2-mM MgCl2, and 5-mM HEPES (pH 7.4). Toxins were applied directly to the bath. Resistances of both electrodes were kept between 0.8 and 1.5 MΩ. The elicited currents were sampled at 20 kHz (Nav) or 2 kHz (Kv), filtered at 2 kHz (Nav) or 0.5 kHz (Kv) using a four-pole low-pass Bessel filter. Leak subtraction was performed using a -P/4 protocol. […] For the electrophysiological analysis, a number of protocols were applied from a holding potential of −90 mV with a start-to-start interval of 0.2 Hz. Kv1.1–Kv1.6 and Shaker currents were evoked by 250-ms depolarizations to 0 mV followed by a 250 ms pulse to −50 mV from a holding potential of −90 mV. […] All data were analyzed using pClamp Clampfit 10.0 (Molecular Devices, Downingtown, PA, USA) and Origin 7.5 software (Originlab, Northampton, MA, USA).

The subject of data set [6] is fungi, Gram-positive or Gram-negative bacteria. Description: Antimicrobial screening, overall. In kind it is cell-based. The conditions noted are these: 1, 5, 10, 20 µM; listed as magnificamide. How it is done: The antimicrobial activity of r-magnificamide was tested against Gram-positive (Staphylococcus aureus ATCC 21027 and Bacillus subtilis ATCC6633), Gram-negative bacteria (Escherichia coli VKPM B-7935 and Pseudomonas aeruginosa ATCC 27853), and the fungus Candida albicans KMM 455 by the agar dilution method. Microbial strains were taken from the American Type Culture Collection (ATCC), Russian National Collection of Industrial Microorganisms (VKPM), and Collection of Marine Microorganisms (KMM) (Pacific Institute of Bioorganic Chemistry FEB RAS). To obtain a microbial lawn, 0.1 mL of a cell suspension (0.5 × 10^8 cells/mL) was uniformly distributed on agar surface in Petri dishes (15 g/L tryptic soy broth, 2 g/L bacto yeast extract, 1 g/L glucose, and 20 g/L agar for bacteria; for fungi 10 g/L of glucose was added). Wells with a diameter of 6 mm were punched into the agar and filled with 100 µL of the peptide solution at concentrations 1, 5, 10, and 20 µM. The plates were then incubated for 18 h at 37 °C for bacteria, and at 30 °C for the fungus. Minimum inhibitory concentration was determined by measuring the clear zone of inhibition around each well. All assays were performed independently three times.

The target in data set [7] is porcine pancreatic α-amylase (porcine) (UniProt P00690). Description: enzyme inhibition kinetics (Morrison tight-binding fit); 37 °C, 50 mM sodium phosphate, 100 mM sodium chloride, pH 7.0; substrate CNPG3 (1 mM with nominal 20 nM PPA; 3.3 mM with nominal 100 nM HSA); enzyme pre-incubated with inhibitor 10 min; Ki from Ki app assuming a competitive mode of inhibition; triplicate.

For data set [8] the following is noted: due to β-sandwich fold; ref [17]; cited from earlier work. From the text:
The medicines based on proteins and peptides are poorly represented in the pharmacological market, but attract the interest of specialists due to their high selectivity and effectiveness, combined with relative safety and good tolerability. A large number of proteinaceous α-amylase inhibitors have been isolated from plants, but they are highly specific and interacted with plant α-amylases to control the breakdown of stored starch or with insect α-amylases for defense. Several very effective proteinaceous inhibitors of mammalian, but not plant or microbial α-amylases were found in bacter ...

Read-outs that look alike come from different tables or passages of the source. Bridge positions count the residues as written; N and C are the ends. Ends that are not written are not given here.

Chain of human salivary α-amylase (HSA) (P0DUB6 16-511): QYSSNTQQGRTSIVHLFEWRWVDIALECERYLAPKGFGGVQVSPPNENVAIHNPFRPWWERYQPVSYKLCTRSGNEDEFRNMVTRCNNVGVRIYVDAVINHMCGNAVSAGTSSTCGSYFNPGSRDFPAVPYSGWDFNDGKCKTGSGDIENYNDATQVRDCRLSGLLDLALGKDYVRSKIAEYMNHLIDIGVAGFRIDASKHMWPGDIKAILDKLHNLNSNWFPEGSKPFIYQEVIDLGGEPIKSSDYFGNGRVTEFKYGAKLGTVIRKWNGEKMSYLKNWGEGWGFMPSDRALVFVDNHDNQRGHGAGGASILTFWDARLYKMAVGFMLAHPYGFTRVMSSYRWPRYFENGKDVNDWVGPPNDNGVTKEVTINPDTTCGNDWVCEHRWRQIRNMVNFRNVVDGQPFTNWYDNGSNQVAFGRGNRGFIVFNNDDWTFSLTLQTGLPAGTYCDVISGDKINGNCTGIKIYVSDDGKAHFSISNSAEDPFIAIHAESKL

For the molecule `C[C@H]1O[C@H](O[C@H]2[C@H](O)[C@@H](O)[C@@H](O[C@H]3[C@H](O)[C@@H](O)C(O)O[C@@H]3CO)O[C@@H]2CO)[C@H](O)[C@@H](O)[C@@H]1N[C@H]1C=C(CO)[C@@H](O)[C@H](O)[C@H]1O` (some centres unmarked) [Acarbose], the Ki in data set [1] (Table 5, ref [9], read-out: Ki, M (HSA) (converted)) is 1300 nM; in data set [1] (ref [9], read-out: Ki against HSA), 1260 nM.
As to “Helianthamide: α-amylase inhibitor of the β-defensins family from Stichodactyla helianthus (44 aa, 4716 Da); PDB ID 4XON (ESGNSCYIYHGVSGICKASCAEDEKAMAGMGVCEGHLCCYKTPW; three disulfide bridges; the text prints the PDB ID as 4XON, read as 4X0N (complex with porcine pancreatic alpha-amylase)) [reference compound]”, the Ki in data set [2] (Table 5, ref [18]) is 0.1 nM.
In the case of Montbretin A, in data set [3], the Ki is 8.1 nM.
As for “SEGTSCYIYHGVYGICKAKCAEDMKAMAGMGVCEGDLCCYKTPW (disulfide 6-38, 16-33, 20-39) [Magnificamide]”, in data set [4], the Ki was 7.7 nM. Also, the “Ion channel modulating activity, overall” value in data set [5] is on record as “found no activity”. Moreover, the “Antimicrobial activity, overall” value in data set [6] is “No antimicrobial activity against Gram-positive, Gram-negative bacteria, or fungi was observed”.
In turn, recombinant magnificamide (peptide) came in with a Ki in data set [7] of 0.17 nM.

B1: Parvulustat (Z-2685): α-amylase inhibitor from Streptomyces parvullus FH-1641, Mr 8129 Da (protein)
chain: ATGSPVAECVEYFQSWRYTDVHNGCADAVSVTVEYTHGQWAPCRVIEPGGWATFAGYGTDGNYVTGLHTCDPATPSGV
modifications: two disulfide bridges; expected 78 aa, 8129 Da
With B1, the Ki in data set [2] (Table 5, ref [16]) was 0.028 nM.

B2: Tendamistat (HOE-467A): α-amylase inhibitor from Streptomyces tendae 4158, Mr 7958 Da (protein, UniProt P01092 31-104, looked up)
Alpha-amylase inhibitor …: DTTVSEPAPSCVTLYQSWRYSQADNGCAQTVTVKVVYEDDTEGLCYAVAPGQITTVGDGYIGSHGHARYLARCL
With B2, the Ki in data set [2] (Table 5, ref [13]) is 0.009 nM. Moreover, in data set [8], the immunogenicity result is “high immunogenicity”.

The values above are taken from article PMC6835510, “Magnificamide, a β-Defensin-Like Peptide from the Mucus of the Sea Anemone Heteractis magnifica, Is a Strong Inhibitor of Mammalian α-Amylases” (Marine Drugs, 2019).
